Source: article PMC7579403, “POTN: A Human Leukocyte Antigen-A2 Immunogenic Peptides Screening Model and Its Applications in Tumor Antigens Prediction” (Frontiers in Immunology, 2020)

Assays:
[1] = system: CD3+CD8+ T cells from HLA-A2+ healthy donors; experiment: ICS assay for immunogenicity: IFN-γ production of CD3+CD8+ T cells from peptide-stimulated PBMCs; assay type: cell-based, human; conditions: for Immunogenicity: response ratio of each peptide in five donors: percentages of IFN-γ+-secreting CD8+ T cells higher than negative control, PBMCs stimulated 10 μg/mL once-weekly 3 weeks
Protocol: We determined whether the high-binding affinity peptides elicited a T cell response in peripheral blood samples from five HLA-A2^+ healthy donors. The blood samples were obtained from Henan Red Cross Blood Center (Zhengzhou, China) with the approval of the Institutional Ethics Review Board. All research was performed under the approval of the Ethics Committee of Zhengzhou University. An ICS assay was used to quantify IFN-γ production of CD3^+CD8^+ T cells. Peripheral blood mononuclear cells (PBMCs) were stimulated by each peptide (10 μg/mL) once-weekly for 3 weeks according to our previous work ([59]). On day 21, the induced T cells from the PBMCs were used as effector cells, and T2 cells were incubated with the synthesized peptides (50 μg/mL) for 4 h as the stimulator cells. The effector cells (1 × 10^6) and stimulator cells (1 × 10^6) were co-incubated for 3 h, and brefeldin A (2 μg/mL, Sigma-Aldrich, USA) was added to block the release of produced cytokines for another 5 h at 37°C and 5% CO2. The cells were washed and stained with eFlour 710 labeled anti-human CD3 antibody and APC-labeled anti-human CD8 antibody (eBioscience) for 30 min at 4°C before fixation and permeabilization. Permeabilized cells were intracellularly stained with the PE-labeled anti-human IFN-γ antibody (BioLegend, Inc., USA) for 30 min on ice in the dark. Cells were resuspended in buffer for acquisition and analysis using a flow cytometer (FACSCalibur, Becton Dickinson).
Next, we examined the T cell responses of the 13 synthesized peptides with high binding affinity by detecting the percentages of IFN-γ^+ CD8^+ T cells from five HLA-A2^+ healthy donors. A higher percentage of IFN-γ^+ CD8^+ T cells in the total CD8^+ T cell population than that of the negative control indicated an immunogenic peptide. In donor 1, 12 were immunogenic ( Figure 5B ); in donor 2, eight peptides were immunogenic ( Figure 5C ); in donor 3, 10 peptides were immunogenic ( Figure 5D ); in donor 4, six peptides were immunogenic ( Figure 5E ); and in donor 5, 12 peptides were immunogenic ( Figure 5F ). […] In other words, any of the 13 high-affinity peptides could stimulate a T lymphocyte response in at least one donor ( Figures 5G, H ).

HLA-A2 molecule = molecular target: T1, HLA-A2 molecule (Homo sapiens, UniProt P04439, D140Y/D185E/D98H/E176V/E277Q/G131W/G231S/I119V/I121R/I166T/I218V/L300P/L318F/N151K/N90K/P208A/P217A/Q86G/Q94H/R138H/R169H/T345S); experiment: T2 binding assay (fluorescence index, FI); conditions: T2 cells, peptide 50 μg/mL, human β2-microglobulin 3 µg/mL, 37°C 18 h, anti-HLA-A2 BB7.2 PE-cy7, flow cytometry; class by FI
T1 construct: The T2 cell line (HLA-A2) was supplied by Professor Yuzhang Wu; endogenous in cells; host or cells: T2 cell line (HLA-A2); exogenous human β2-microglobulin from Merck
Protocol: The T2 binding assay was used to determine the binding affinity of the candidate peptides and HLA-A2 molecule by using a previously described protocol ([27]). The T2 cell line (HLA-A2) was supplied by Professor Yuzhang Wu (Third Military Medical University, Chongqing, China). […] The T2 cells were washed twice and incubated with the anti-human HLA-A2-PE-cy7 antibody (BB7.2, eBioscience, USA) at 4°C for 30 min. The mean fluorescence intensity (FI) of each group was analyzed by flow cytometry (FACSCalibur, Becton-Dickinson, USA). Based on the FI, the binding affinity of the candidate peptides toward HLA-A2 molecule was calculated by FI =a−b/b where a is the mean PE-cy7 FI with the peptide and b is the mean PE-cy7 FI without the peptide.

T cell response = system: T cell response; design: method as in PMID 29720506, PMID 15564450, PMID 18753217, PMID 21883919, PMID 11984506; conditions: pairs with only one amino acid different at P3; ref [62]–[66]; cited from earlier work

Row | Binding (HLA-A2 molecule) | Sequence | Immunogenicity: response ratio of each peptide in five donors [1] | Immunogenicity (immunogenic / non-immunogenic) (T cell response) | T cell response in donors ([1]; IFN-γ+ CD8+ T cells, five HLA-A2+ healthy donors)
1 | ++ (FI ≥ 1.5) | KMAGELIKI [CT-X candidate nonamer predicted by POTN, synthesized] | 4/5 |  | 
2 | + (FI ≥ 0.5 to < 1.5) | KVADLIHFL [CT-X candidate nonamer predicted by POTN, synthesized] |  |  | 
3 | + (FI ≥ 0.5 to < 1.5) | KVAELVHFL [CT-X candidate nonamer predicted by POTN, synthesized] |  |  | 
4 | + (FI ≥ 0.5 to < 1.5) | KVAKLVHFL [CT-X candidate nonamer predicted by POTN, synthesized] |  |  | 
5 | ++ (FI ≥ 1.5) | LMDVQIPTA [CT-X candidate nonamer predicted by POTN, synthesized] | 5/5 |  | 
6 | ++ (FI ≥ 1.5) | SIDDLSFYV [CT-X candidate nonamer predicted by POTN, synthesized] | 4/5 |  | 
7 | ++ (FI ≥ 1.5) | TLDEKVAEL [CT-X candidate nonamer predicted by POTN, synthesized] | 5/5 |  | 
8 | ++ (FI ≥ 1.5) | TLDQVLDEV [CT-X candidate nonamer predicted by POTN, synthesized] | 5/5 |  | 
9 | + (FI ≥ 0.5 to < 1.5) | VLSAVTPEL [CT-X candidate nonamer predicted by POTN, synthesized] |  |  | 
10 | + (FI ≥ 0.5 to < 1.5) | VLSNVLSGL [CT-X candidate nonamer predicted by POTN, synthesized] |  |  | 
11 | ++ (FI ≥ 1.5) | VLSTAPPQL [CT-X candidate nonamer predicted by POTN, synthesized] | 4/5 |  | 
12 | ++ (FI ≥ 1.5) | YLATADMPA [CT-X candidate nonamer predicted by POTN, synthesized] | 3/5 |  | 

Second part, the sequence before the results:

Row | Sequence | Binding (HLA-A2 molecule) | Immunogenicity: response ratio of each peptide in five donors [1] | Immunogenicity (immunogenic / non-immunogenic) (T cell response) | T cell response in donors ([1]; IFN-γ+ CD8+ T cells, five HLA-A2+ healthy donors)
13 | ALDEKVAEL [CT-X candidate nonamer predicted by POTN, synthesized] | ++ (FI ≥ 1.5) | 4/5 |  | 
14 | ALSTVLPGL [CT-X candidate nonamer predicted by POTN, synthesized] | ++ (FI ≥ 1.5) | 2/5 |  | 
15 | ALSVMGVYV [CT-X candidate nonamer predicted by POTN, synthesized] | + (FI ≥ 0.5 to < 1.5) |  |  | 
16 | AMASASPSV [CT-X candidate nonamer predicted by POTN, synthesized] | ++ (FI ≥ 1.5) | 3/5 |  | 
17 | EVKEKHEFL [literature peptide of a P3 pair] |  |  | immunogenic | 
18 | EVREKHEFL [literature peptide of a P3 pair] |  |  | non-immunogenic | 
19 | FIDKLVESV [CT-X candidate nonamer predicted by POTN, synthesized] | ++ (FI ≥ 1.5) | 5/5 |  | 
20 | FLAKLNNTV [CT-X candidate nonamer predicted by POTN, synthesized; also in training set] | + (FI ≥ 0.5 to < 1.5) |  |  | 
21 | FLAMLKNTV [CT-X candidate nonamer predicted by POTN, synthesized] | + (FI ≥ 0.5 to < 1.5) |  |  | 
22 | FLSKLSSII [CT-X candidate nonamer predicted by POTN, synthesized] | - (FI < 0.5) |  |  | 
23 | ILDRANQSV [CT-X candidate nonamer predicted by POTN, synthesized] | ++ (FI ≥ 1.5) | 3/5 |  | 
24 | KLSSIIPSA [CT-X candidate nonamer predicted by POTN, synthesized] | ++ (FI ≥ 1.5) | 1/5 |  | only elicited a response in donor 5
25 | QLCDVMFYL [literature peptide of a P3 pair] |  |  | immunogenic | 
26 | QLRDVMFYL [literature peptide of a P3 pair] |  |  | non-immunogenic | 
